Test results reported in patent US9150539B2, “Crystalline form of a reverse transcriptase inhibitor” (Merck Sharp & Dohme Corp., priority 2012, dated 2015).

Assay: Relative thermodynamic stability of crystalline anhydrous Forms I and II (competitive slurry experiments)
Format: physicochemical
Protocol: Competitive slurry experiments were conducted to determine the relative stability of anhydrous Form I and II.

SMILES	thermodynamic stability (at room temperature)	kinetic preference of form (at room temperature)	conversion rate from AHI to AHII (in solution, under general processing conditions)
Cn1c(Cn2ccc(C(F)(F)F)c(Oc3cc(Cl)cc(C#N)c3)c2=O)n[nH]c1=O [anhydrous Form II, 3-chloro-5-({1-[(4-methyl-5-oxo-4,5-dihydro-1H-1,2,4-triazol-3-yl)methyl]-2-oxo-4-(trifluoromethyl)-1,2-dihydropyridin-3-yl}oxy)benzonitrile]	more thermodynamically stable	–	–
Cn1c(Cn2ccc(C(F)(F)F)c(Oc3cc(Cl)cc(C#N)c3)c2=O)n[nH]c1=O [anhydrous Form I, 3-chloro-5-({1-[(4-methyl-5-oxo-4,5-dihydro-1H-1,2,4-triazol-3-yl)methyl]-2-oxo-4-(trifluoromethyl)-1,2-dihydropyridin-3-yl}oxy)benzonitrile]	–	kinetically favored	very slow
